In patent publication US7405240B2, “Substituted cyclopentanes or cyclopentanones as therapeutic agents” (Allergan, Inc., priority 2006, dated 2008):
Blank lines part the entries; values can stand above or below the compound they belong to.

Experiments:
[1] = system: laser-induced hypertensive monkeys; test: Intraocular pressure in laser-induced hypertensive monkeys; assay type: in vivo, monkey; settings: one single day dose
Procedure: (§1) (Z)-7-[(1R,2S,3R,5R)-5-Chloro-2-(3,5-dichloro-phenoxymethyl)-3-hydroxy-cyclopentyl]-hept-5-enoic acid (15b) was tested at multiple concentrations in normotensive dogs, dosing once daily for 5 days. At 0.05%, the maximum IOP decrease from baseline was 4.3 mmHg (30%) at 6 h; the maximum OSH score was 0.6 at 6 h. […] This compound was also tested in laser-induced hypertensive monkeys, using one single day dose. At 0.1%, the maximum IOP decrease from baseline was 6 mmHg (19%) at 6 h.
(§2) (Z)-7-[(1R,2S,3R,5R)-5-Chloro-2-(3,5-dichloro-phenoxymethyl)-3-hydroxy-cyclopentyl]-hept-5-enoic acid isopropyl ester (42b) was tested in normotensive dogs at 0.05%, dosing once daily for 5 days. The maximum intraocular pressure (IOP) decrease from baseline was 3 mmHg (19%) at 6 h; the maximum ocular surface hyperemia (OSH) score was 0.6 at 74 h. This compound was also tested in laser-induced hypertensive monkeys, using one single day dose. At 0.01%, the maximum IOP decrease from baseline was 6 mmHg (16%) at 6 h.

normotensive dogs = test: Intraocular pressure and ocular surface hyperemia in normotensive dogs; assay type: in vivo, dog; set-up: maximum OSH score: scale not given here; settings: once daily for 5 days
Procedure: as §1, §2

hEP2 [2] = target: T1, hEP2 (Homo sapiens, UniProt P43116); test: Competition binding, [3H]PGE2, human EP2 receptors; set-up: expressed in transfected cells; host or cells: HEK 293; settings: [3H]PGE2, HEK 293 cells stably expressing human EP2; read-out: hEP2 Ki
T1 sequence (P43116 whole entry): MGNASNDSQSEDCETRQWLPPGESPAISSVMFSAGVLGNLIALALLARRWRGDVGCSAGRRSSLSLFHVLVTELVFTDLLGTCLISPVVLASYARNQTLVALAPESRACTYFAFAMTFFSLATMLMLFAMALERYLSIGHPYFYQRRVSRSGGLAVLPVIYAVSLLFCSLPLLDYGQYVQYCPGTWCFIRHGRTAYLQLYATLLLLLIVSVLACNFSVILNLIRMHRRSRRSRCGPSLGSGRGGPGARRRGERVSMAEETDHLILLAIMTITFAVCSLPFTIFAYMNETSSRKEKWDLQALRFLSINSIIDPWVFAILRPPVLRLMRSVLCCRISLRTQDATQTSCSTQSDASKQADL
Method in brief: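 HEK 293 membranes or cells stably expressing human EP2 were incubated with 10 nM [3H]PGE2 and test compound in HBSS/20 mM Hepes pH 7.3, 60 min at 23° C, then filtered. Non-specific binding defined with 10 μM PGE2; IC50 from single-site fit converted to Ki using KD 40 nM.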

hEP2 [3] = target: T1, hEP2; test: cAMP assay, hEP2; assay type: cell-based
hEP4 [4] = target: T2, hEP4 (Homo sapiens, UniProt P35408); test: Radioligand binding, EP4 receptor; set-up: expressed in transfected cells; host or cells: HEK-293; settings: [3H]PGE2, HEK-293 cells expressing EP4
T2 sequence (P35408 whole entry): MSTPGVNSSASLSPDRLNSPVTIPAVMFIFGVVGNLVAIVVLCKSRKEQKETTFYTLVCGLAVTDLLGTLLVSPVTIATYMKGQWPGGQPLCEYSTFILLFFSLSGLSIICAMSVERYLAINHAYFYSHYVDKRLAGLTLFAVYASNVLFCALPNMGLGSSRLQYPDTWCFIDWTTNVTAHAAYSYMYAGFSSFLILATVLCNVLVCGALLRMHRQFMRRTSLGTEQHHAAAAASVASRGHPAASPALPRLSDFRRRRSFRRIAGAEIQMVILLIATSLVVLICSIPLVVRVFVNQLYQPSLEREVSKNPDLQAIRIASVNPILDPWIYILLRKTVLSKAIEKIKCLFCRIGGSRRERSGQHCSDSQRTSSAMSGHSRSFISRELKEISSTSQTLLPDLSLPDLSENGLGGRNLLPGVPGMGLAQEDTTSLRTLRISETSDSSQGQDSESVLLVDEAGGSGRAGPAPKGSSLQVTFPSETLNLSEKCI
Method in brief: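 HEK-293 membranes stably expressing human EP4, in TME buffer pH 7.4; competition vs 5 nM [3H]-PGE2, 60 min at 25 °C, stopped by GF/B filtration. Non-specific binding defined with 10^−5 M unlabeled PGE2; duplicates, at least three experiments.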

hEP2 [5] = target: T1, hEP2; test: FLIPR calcium signal, hEP2; assay type: cell-based; set-up: expressed in transfected cells; host or cells: HEK-293(EBNA); settings: HEK-293(EBNA) cells expressing hEP2/Gqs5
Method in brief: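 HEK-293(EBNA) cells stably expressing a single human prostaglandin receptor (hDP/Gqs5 chimera for DP), Fluo-4 AM loaded, in HBSS-HEPES pH 7.4 at 37 °C. Peak calcium fluorescence scaled to buffer and receptor standard agonist; 10^−5 M single-point or 10^−5–10^−11 M curves, duplicates, n≥3.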

hEP4 [6] = target: T2, hEP4; test: FLIPR calcium signal, hEP4; assay type: cell-based; set-up: expressed in transfected cells; host or cells: HEK-293(EBNA); settings: HEK-293(EBNA) cells expressing hEP4/Gqs5
Procedure: Methods for FLIPR™ Studies
HEK-293(EBNA) cells, stably expressing one type or subtype of recombinant human prostaglandin receptors (prostaglandin receptors expressed: hDP/Gqs5; hEP1; hEP2/Gqs5; hEP3A/Gqi5; hEP4/Gqs5; hFP; hIP; hTP), were cultured in 100 mm culture dishes in high-glucose DMEM medium containing 10% fetal bovine serum, 2 mM 1-glutamine, 250 μg/ml geneticin (G418) and 200 μg/ml hygromycin B as selection markers, and 100 units/ml penicillin G, 100 μg/ml streptomycin and 0.25 μg/ml amphotericin B.
Cells were seeded at a density of 5×10^4 cells per well in Biocoat® Poly-D-lysine-coated black-wall, clear-bottom 96-well plates (Becton-Dickinson) and allowed to attach overnight in an incubator at 37° C. Cells were then washed two times with HBSS-HEPES buffer (Hanks Balanced Salt Solution without bicarbonate and phenol red, 20 mM HEPES, pH 7.4) using a Denley Cellwash plate washer (Labsystems). After 45 minutes of dye-loading in the dark, using the calcium-sensitive dye Fluo-4 AM at a final concentration of 2 μM, plates were washed four times with HBSS-HEPES buffer to remove excess dye leaving 100 μl in each well. Plates were re-equilibrated to 37° C. for a few minutes.
Cells were excited with an Argon laser at 488 nm, and emission was measured through a 510-570 nm bandwidth emission filter (FLIPR™, Molecular Devices, Sunnyvale, Calif.). Drug solution was added in a 50 μl volume to each well to give the desired final concentration. The peak increase in fluorescence intensity was recorded for each well. On each plate, four wells each served as negative (HBSS-HEPES buffer) and positive controls (standard agonists: BW245C (hDP); PGE2 (hEP1; hEP2/Gqs5; hEP3A/Gqi5; hEP4/Gqs5); PGF2α (hFP); carbacyclin (hIP); U-46619 (hTP), depending on receptor). The peak fluorescence change in each drug-containing well was then expressed relative to the controls.
Compounds were tested in a high-throughput (HTS) or concentration-response (CoRe) format. In the HTS format, forty-four compounds per plate were examined in duplicates at a concentration of 10^−5 M. To generate concentration-response curves, four compounds per plate were tested in duplicates in a concentration range between 10^−5 and 10^−11 M. The duplicate values were averaged. In either, HTS or CoRe format each compound was tested on at least 3 separate plates using cells from different passages to give an n≧3.

[7] = Canis lupus familiaris, topical, 120 h, 0.05%, read-out: maximum IOP decrease from baseline
[8] = Primates, topical, 0.1%, read-out: maximum IOP decrease from baseline
[9] = Canis lupus familiaris, topical, 120 h, 0.1%, read-out: maximum IOP decrease from baseline

maximum OSH score (normotensive dogs; 0.05%): 0.6 | time of maximum OSH score (normotensive dogs; 0.05%): 74 h
Compound: CC(C)OC(=O)CCC/C=C\C[C@@H]1[C@@H](COc2cc(Cl)cc(Cl)c2)[C@H](O)C[C@H]1Cl [Example 42b, (Z)-7-[(1R,2S,3R,5R)-5-Chloro-2-(3,5-dichloro-phenoxymethyl)-3-hydroxy-cyclopentyl]-hept-5-enoic acid isopropyl ester]
maximum IOP decrease from baseline ([1]; 0.01%): 6 mmHg | time of maximum IOP decrease ([1]; 0.01%): 6 h | change in vivo at 0.01 % ([1]; Primates, topical, 0.01%, read-out: maximum IOP decrease from baseline): 16% | maximum IOP decrease from baseline (normotensive dogs; 0.05%): 3 mmHg | time of maximum IOP decrease (normotensive dogs; 0.05%): 6 h | change in vivo at 0.05 % (normotensive dogs; [7]): 19%

maximum OSH score (normotensive dogs; 0.03%): 0.7 | time of maximum OSH score (normotensive dogs; 0.03%): 78 h
Compound: CC(C)OC(=O)CCC/C=C\C[C@@H]1[C@@H](COc2cc(C(F)(F)F)cc(C(F)(F)F)c2)[C@H](O)C[C@H]1Cl [Example 42c, (Z)-7-[(1R,2S,3R,5R)-2-(3,5-Bis-trifluoromethyl-phenoxymethyl)-5-chloro-3-hydroxy-cyclopentyl]-hept-5-enoic acid isopropyl ester]
maximum IOP decrease from baseline ([1]; 0.03%): 4 mmHg | time of maximum IOP decrease ([1]; 0.03%): 6 h | change in vivo at 0.03 % ([1]; Primates, topical, 0.03%, read-out: maximum IOP decrease from baseline): 11% | maximum IOP decrease from baseline (normotensive dogs; 0.03%): 2.3 mmHg | time of maximum IOP decrease (normotensive dogs; 0.03%): 100 h | change in vivo at 0.03 % (normotensive dogs; Canis lupus familiaris, topical, 120 h, 0.03%, read-out: maximum IOP decrease from baseline): 14%

maximum OSH score (normotensive dogs; 0.05%): 0.6 | time of maximum OSH score (normotensive dogs; 0.05%): 6 h | maximum OSH score (normotensive dogs; 0.1%): 1.3 | time of maximum OSH score (normotensive dogs; 0.1%): 6 h
Compound: O=C(O)CCC/C=C\C[C@@H]1[C@@H](COc2cc(Cl)cc(Cl)c2)[C@H](O)C[C@H]1Cl [Example 15b, (Z)-7-[(1R,2S,3R,5R)-5-Chloro-2-(3,5-dichloro-phenoxymethyl)-3-hydroxy-cyclopentyl]-hept-5-enoic acid]
maximum IOP decrease from baseline ([1]; 0.1%): 6 mmHg | time of maximum IOP decrease ([1]; 0.1%): 6 h | change in vivo at 0.1 % [1, 8]: 19% | maximum IOP decrease from baseline (normotensive dogs; 0.05%): 4.3 mmHg | time of maximum IOP decrease (normotensive dogs; 0.05%): 6 h | maximum IOP decrease from baseline (normotensive dogs; 0.1%): 4.8 mmHg | time of maximum IOP decrease (normotensive dogs; 0.1%): 102 h | change in vivo at 0.05 % (normotensive dogs; [7]): 30% | change in vivo at 0.1 % (normotensive dogs; [9]): 34%

Ki (hEP2 [2]): 122 nM | EC50 (hEP2 [3]): 3 nM | Ki (hEP4 [4]): 1320 nM | EC50 (hEP2 [5]): 61 nM | EC50 (hEP4 [6]): > 10000 nM
Compound: Cc1cccc(OC[C@@H]2[C@@H](C/C=C\CCCC(=O)O)[C@H](Cl)C[C@H]2O)c1C [Example 32, (Z)-7-[(1R,2S,3R,5R)-5-Chloro-2-(2,3-dimethyl-phenoxymethyl)-3-hydroxy-cyclopentyl]-hept-5-enoic acid]

Ki (hEP2 [2]): 43 nM | EC50 (hEP2 [3]): 5 nM | Ki (hEP4 [4]): > 10000 nM | EC50 (hEP2 [5]): 18 nM | EC50 (hEP4 [6]): 823 nM
Compound: O=C(O)CCC/C=C\C[C@@H]1[C@@H](COc2cccc(Cl)c2)[C@H](O)C[C@H]1Cl [Example 22, (Z)-7-[(1R,2S,3R,5R)-5-Chloro-2-(3-chloro-phenoxymethyl)-3-hydroxy-cyclopentyl]-hept-5-enoic acid]

Ki (hEP2 [2]): 61 nM | EC50 (hEP2 [3]): 27 nM | Ki (hEP4 [4]): 507 nM | EC50 (hEP2 [5]): 301 nM | EC50 (hEP4 [6]): 3420 nM
Compound: O=C(O)CCC/C=C\C[C@@H]1[C@@H](COc2ccc3ccccc3c2)[C@H](O)C[C@H]1Cl [Example 17, (Z)-7-[(1R,2S,3R,5R)-5-Chloro-3-hydroxy-2-(naphthalen-2-yloxymethyl)-cyclopentyl]-hept-5-enoic acid]

maximum OSH score (normotensive dogs; 0.1%): 0.6 | time of maximum OSH score (normotensive dogs; 0.1%): 30 h
Compound: CC(C)OC(=O)CCC/C=C\C[C@@H]1[C@@H](COc2ccc(CO)cc2)[C@H](O)C[C@H]1Cl [Example 42bb, (Z)-7-[(1R,2S,3R,5R)-5-Chloro-3-hydroxy-2-(4-hydroxymethyl-phenoxymethyl)-cyclopentyl]-hept-5-enoic acid isopropyl ester]
maximum IOP decrease from baseline ([1]; 0.1%): 5.5 mmHg | time of maximum IOP decrease ([1]; 0.1%): 6 h | change in vivo at 0.1 % [1, 8]: 16% | maximum IOP decrease from baseline (normotensive dogs; 0.1%): 4.6 mmHg | time of maximum IOP decrease (normotensive dogs; 0.1%): 100 h | change in vivo at 0.1 % (normotensive dogs; [9]): 33%

Compound: CC(=O)OCc1cc(Cl)cc(OC[C@@H]2[C@@H](C/C=C\CCCC(=O)O)[C@H](Cl)C[C@H]2O)c1 [Example 64, (Z)-7-[(1R,2S,3R,5R)-2-(3-Acetoxymethyl-5-chloro-phenoxymethyl)-5-chloro-3-hydroxy-cyclopentyl]-hept-5-enoic acid]
Ki (hEP2 [2]): 65 nM | EC50 (hEP2 [3]): 6.5 nM | Ki (hEP4 [4]): 381 nM | EC50 (hEP2 [5]): 1110 nM | EC50 (hEP4 [6]): 7450 nM

Ki (hEP2 [2]): 274 nM | EC50 (hEP2 [3]): 20 nM | Ki (hEP4 [4]): 1680 nM | EC50 (hEP2 [5]): 245 nM | EC50 (hEP4 [6]): 3720 nM
Compound: COc1cccc(OC[C@@H]2[C@@H](C/C=C\CCCC(=O)O)[C@H](Cl)C[C@H]2O)c1 [Example 28, (Z)-7-[(1R,2S,3R,5R)-5-Chloro-3-hydroxy-2-(3-methoxy-phenoxymethyl)-cyclopentyl]-hept-5-enoic acid]

Ki (hEP2 [2]): 64 nM | EC50 (hEP2 [3]): 2 nM | Ki (hEP4 [4]): 497 nM | EC50 (hEP2 [5]): 520 nM | EC50 (hEP4 [6]): 10600 nM
Compound: O=C(O)CCC/C=C\C[C@@H]1[C@@H](COc2cc(Cl)cc(CO)c2)[C@H](O)C[C@H]1Cl [Example 65, (Z)-7-[(1R,2S,3R,5R)-5-Chloro-2-(3-chloro-5-hydroxymethyl-phenoxymethyl)-3-hydroxy-cyclopentyl]-hept-5-enoic acid]

maximum OSH score (normotensive dogs; 0.1%): 0.6 | time of maximum OSH score (normotensive dogs; 0.1%): 50 h
Compound: CC(C)OC(=O)CCC/C=C\C[C@@H]1[C@@H](COc2cccc(C(F)(F)F)c2)[C@H](O)C[C@H]1Cl [Example 42i, (Z)-7-[(1R,2S,3R,5R)-5-Chloro-3-hydroxy-2-(3-trifluoromethyl-phenoxymethyl)-cyclopentyl]-hept-5-enoic acid isopropyl ester]
maximum IOP decrease from baseline ([1]; 0.1%): 4.7 mmHg | time of maximum IOP decrease ([1]; 0.1%): 6 h | change in vivo at 0.1 % [1, 8]: 14% | maximum IOP decrease from baseline (normotensive dogs; 0.1%): 2.7 mmHg | time of maximum IOP decrease (normotensive dogs; 0.1%): 2 h | change in vivo at 0.1 % (normotensive dogs; [9]): 19%
